Source: patent publication EP0052564A1, “Derivatives of 2-thiazolyl-oxamic acid substituted in position 4 by a thienyl or furyl radical, their preparation and use as pharmaceutical preparations” (PIERRE FABRE S.A., priority 1980, dated 1982)

Test: Solubility (in water, ethanol, methyl pyrrolidone)
Assay type: physicochemical
Details: ethanol

| Solubilités : dans l'éthanol [%] | Compound |
| --- | --- |
| 1 | CCOC(=O)C(=O)Nc1nc(-c2cccs2)cs1 [Exemple 1, (α thienyl-4 thiazolyl-2) oxamate d'éthyle] |
| 3 | CCOC(=O)C(=O)Nc1nc(-c2ccco2)cs1 [Exemple 7, (α furyl-4 thiazolyl-2) oxamate d'éthyle] |

Same assay, conditions: methyl pyrrolidone

| Compound | Solubilités : dans la méthyl pyrrolidone [%] |
| --- | --- |
| O=C(O)C(=O)Nc1nc(-c2cccs2)cs1 [Exemple 2, Acide (α thienyl-4 thiazolyl-2) oxamique] | 50 |
| CCOC(=O)C(=O)Nc1nc(-c2cccs2)cs1 [Exemple 1, (α thienyl-4 thiazolyl-2) oxamate d'éthyle] | 50 |
| O=C(O)C(=O)Nc1nc(-c2cccs2)cs1 [Exemple 3, (α thienyl-4 thiazolyl-2) oxamate de sodium] | 15 |

Second part, the compound after the results:

| Solubilités : dans la méthyl pyrrolidone [%] | Compound |
| --- | --- |
| 25 | O=C(O)C(=O)Nc1nc(-c2ccco2)cs1 [Exemple 8, Acide (α furyl-4 thiazolyl-2) oxamique] |
| 50 | (α thienyl-4 thiazolyl-2) oxamate de zinc [Exemple 4] |
| 15 | (α thienyl-4 thiazolyl-2) oxamate d'éthanolamine [Exemple 5] |
| 50 | CCOC(=O)C(=O)Nc1nc(-c2ccco2)cs1 [Exemple 7, (α furyl-4 thiazolyl-2) oxamate d'éthyle] |
| 50 | CCOC(=O)C(=O)Nc1nc(-c2ccsc2)cs1 [Exemple 6, ( β thienyl-4 thiazolyl-2) oxamate d'éthyle] |

Same assay, conditions: water

| Compound | Solubilités : dans l'eau |
| --- | --- |
| O=C(O)C(=O)Nc1nc(-c2cccs2)cs1 [Exemple 2, Acide (α thienyl-4 thiazolyl-2) oxamique] | insoluble |
| CCOC(=O)C(=O)Nc1nc(-c2cccs2)cs1 [Exemple 1, (α thienyl-4 thiazolyl-2) oxamate d'éthyle] | insoluble |
| O=C(O)C(=O)Nc1nc(-c2cccs2)cs1 [Exemple 3, (α thienyl-4 thiazolyl-2) oxamate de sodium] | insoluble |

Next, values leading:

| Solubilités : dans l'eau | Compound |
| --- | --- |
| insoluble | O=C(O)C(=O)Nc1nc(-c2ccco2)cs1 [Exemple 8, Acide (α furyl-4 thiazolyl-2) oxamique] |
| insoluble | (α thienyl-4 thiazolyl-2) oxamate de zinc [Exemple 4] |
| insoluble | (α thienyl-4 thiazolyl-2) oxamate d'éthanolamine [Exemple 5] |
| insoluble | CCOC(=O)C(=O)Nc1nc(-c2ccco2)cs1 [Exemple 7, (α furyl-4 thiazolyl-2) oxamate d'éthyle] |
| insoluble | CCOC(=O)C(=O)Nc1nc(-c2ccsc2)cs1 [Exemple 6, ( β thienyl-4 thiazolyl-2) oxamate d'éthyle] |
